{"source": "patent US20020009441A1", "about": "“Reactively modified therapeutic compounds having an extended lifetime in vivo” (priority 1993, published 2002)", "key": {"red blood cells": {"tested_on": "red blood cells", "conditions": "rabbit, in vivo", "protocol": "I. Two rabbits were injected with a solution of N-succinimidyl biotin ester (NHS-biotin)(5 or 50 mg in 200 μl or 1 ml of DMSO) i.v. on day 0."}, "plasma proteins": {"tested_on": "plasma proteins", "conditions": "rabbit, in vivo"}, "anti-avidin titer": {"tested_on": "anti-avidin titer", "test": "Anti-avidin antibody titer by ELISA after i.v. avidin", "type": "in vivo, rabbit", "description": "II. […] Within about 2 days the titer began to rise rapidly and by 10 days a high anti-avidin titer was observed by ELISA, using avidin coated to microiplates, as evidenced by an OD value of about 600."}, "[1]": {"conditions": "blood component in blood; cited from earlier work"}}, "data": [{"molecule": "O=C1N[C@H]2[C@H](CS[C@H]2CCCCC(=O)ON2C(=O)CCC2=O)N1", "note": "[NHS-biotin, N-succinimidyl biotin ester]", "values": [{"measurement": "biotinylated red blood cell protein bands at 33 days", "setting": "red blood cells", "result": "no bands could be observed"}, {"measurement": "duration for which biotinylated red blood cell proteins could be observed", "setting": "red blood cells", "result": 12, "unit": "days"}, {"measurement": "duration for which IgG bands could be observed", "setting": "plasma proteins", "result": 9, "unit": "days"}, {"measurement": "duration of detection of biotin bound to IgM and IgG", "setting": "plasma proteins", "result": "up to 33 days"}]}, {"molecule": "avidin: egg white avidin, heterologous protein and reciprocal binding member of biotin", "values": [{"measurement": "time at which anti-avidin titer began to rise rapidly", "setting": "anti-avidin titer; 250 μg or 1 mg egg white avidin i.v. after biotin conjugate administration", "result": "≤ 2", "unit": "days"}, {"measurement": "anti-avidin titer, OD value (ELISA)", "setting": "anti-avidin titer; by 10 days, 250 μg or 1 mg egg white avidin i.v. after biotin conjugate administration", "result": "about 600"}, {"measurement": "anti-avidin antibody production", "setting": "anti-avidin titer; rabbits not previously given biotin conjugate, before i.v. booster of 50 μg avidin on day 6", "result": "substantially no production of antibodies"}]}, {"molecule": "transferrin: blood protein, mobile blood component", "values": [{"measurement": "Half-life", "setting": "[1]", "result": 10, "unit": "days"}]}]}
